The values below come from patent US9540373B2, “Substituted spirocycles” (Boehringer Ingelheim International GmbH, priority 2014, dated 2017).

Where two headings read alike, the source gives them in different places. Where only a bound is given, the exact number is not on record here.

The target in data set [1] is recombinant human DPPI (Cathepsin C) (Homo sapiens (Human), UniProt P53634). In words: Inhibition of human DPPI (Cathepsin C). In kind it is biochemical. The procedure:
Inhibition of Human DPPI (Cathepsin C)
The analysis of the data was performed by calculating the percentage of fluorescence in the presence of test compound in comparison to the fluorescence of the vehicle control after 20 subtracting the background fluorescence using the following formula: (RFU(sample)−RFU(background))*100/(RFU(control)−RFU(background))
Data from these calculations were used to generate IC50 values for inhibition of DPPI, respectively.

For data set [2], the system named is neutrophil elastase activity in U937 cells. Description: Determination of neutrophil elastase activity in U937 cytosolic lysate preparation after incubation with test compound. The data set is classed as cell-based. Particulars: Homo sapiens, U-937; U937 cells incubated 48 hours with compound, NE activity in lysate; read-out: Reduction of NE-activity in U937 cells IC50. The procedure:
Determination of Neutrophil Elastase Activity in U937 Cytosolic Lysate Preparation after Incubation with Test Compound Materials:
24 well Nunclon cell culture plates (No. 142475) and 96 well plates (No. 267245) were from Nunc.
Dimethylsulfoxid (DMSO) was from Sigma (Prod. No. D8418). Nonidet-P40 (NP40) was from USBiological (Prod. No. N3500)
Substrate, specific for Neutrophil elastase, was from Bachem (MeOSuc-Ala-Ala-Pro-Val-AMC; Prod. No. I-1270).
Human neutrophil elastase was from Calbiochem (Prod. No. 324681)
Tris-buffer (100 mM Tris; 1M NaCl; pH 7.5)
Tris-buffer+HSA 0.1%; Human Serum Albumin from Calbiochem (Cat#. 126658)
Serine-protease buffer (20 mM Tris; 100 mM NaCl; pH 7.5)+0.1% HSA
Serine protease lysis buffer: 20 mM Tris-HCl; 100 mM NaCl pH 7.5; +0.2% Nonidet-P40;
PBS: phosphate buffered saline, without Ca and Mg, from Gibco
U937 from ECACC (Cat. No. 85011440) cultured in suspension at 37° C. and 5% CO2.
Cell density: 0.2-1 Mio. Cells/ml.
Medium: RPMI1640 GlutaMAX (No. 61870) with 10% FCS from Gibco
Cell Seeding and Treatment:
Compounds in 100% DMSO were diluted in Medium (−FCS) with 10% DMSO and further diluted according to the experiment planned.
20 μl of the compound solution was transferred in the respective wells of the 24 well plate and diluted with 2 ml cell suspension/well containing 1×10^5 cells/ml (final concentration of DMSO=0.1%). Compound dilution factor=100
Compounds (up to 7 concentrations) were tested in triplicates with 3 wells for the DMSO 0.1% control, incubated for 48 hours without medium change at 37° C., 5% CO2 and 95% relative humidity.
Cell Harvesting and Cell Lysate:
Transfer the cell suspension in 2 ml 96 well assay block. Separate cells from medium by centrifugation (500×g; 10 min; RT); discard the supernatant. Resuspend in 1 ml PBS; centrifugation (500×g; 10 min; RT); wash cells twice with PBS. Add 80 μl Serine protease lysis buffer (ice cold) to the cell pellet; resuspend the pellet and store on ice for 10 minutes. Remove debris by centrifugation at 1000×g for 10 min at 4° C. Transfer 80-100 μl lysate supernatant in 96 well plate and store immediately at −80° C.
Neutrophil Elastase Activity Assay:
Frozen lysates were thaw at 37° C. for 10 minutes and stored on ice. Protein content was determined with Bradford protein assay. Lysates were diluted to 0.2-0.5 mg/ml protein in serine protease buffer+HSA.
Standard: NE (100 μg/ml stock solution in Tris-buffer; stored at −80° C.) was diluted in Tris-buffer+HSA to 750 ng/ml, and further serially diluted 1:2 for the standard curve. Buffer, blank, standard and lysate samples were transferred into 384 well plate
Blank: 5 μl Tris-buffer+10 μl Serine protease buffer+5 μl Substrate
Standard: 5 μl Tris-buffer+10 μl NE (diff. conc.)+5 μl Substrate
Lysate: 5 μl Tris-buffer+10 μl Lysat+5 μl Substrate
The increase in fluorescence (Ex360 nm/Em 460 nm) is determined after 30 minutes with a Molecular Device Spectramax M5 Fluorescence Reader. The result is interpolated to ng/mg lysate protein using excel formula functions. Percent inhibition in the compound-treated lysate samples is calculated relative to the DMSO-treated control-sample (100−(compound-sample*100)/control-sample)
A test compound will give values between 0% and 100% inhibition of neutrophil elastase. IC50 is calculated using Graphpad Prism; nonlinear fitting (log(inhibitor) vs. response—Variable slope). The IC50 value is interpolated as the concentration of test compound which leads to a neutrophil elastase activity reduction of 50% (relative to the DMSO-treated control).

The nature of data set [3]: Determination of metabolic stability with human liver microsomes. The data set is classed as in vitro ADME. Particulars: pH 7.6; pooled human liver microsomes, 1 mg/ml protein, 1 μM compound, 37° C., NADPH; read-out: In vitro stability in human liver microsome incubations t1/2. As for the experimental part:
Determination of Metabolic Stability with Human Liver Microsomes
The metabolic degradation of the test compound is assayed at 37° C. with pooled human liver microsomes. The final incubation volume of 100 μl per time point contains TRIS buffer pH 7.6 (0.1 M), magnesium chloride (5 mM), microsomal protein (1 mg/ml) and the test compound at a final concentration of 1 μM. Following a short preincubation period at 37° C., the reactions are initiated by addition of beta-nicotinamide adenine dinucleotide phosphate, reduced form (NADPH, 1 mM) and terminated by transferring an aliquot into acetonitrile after different time points. Additionally, the NADPH-independent degradation is monitored in incubations without NADPH, terminated at the last time point. The [%] remaining test compound after NADPH independent incubation is reflected by the parameter c (control) (metabolic stability). The quenched incubations are pelleted by centrifugation (10′000 g, 5 min.) An aliquot of the supernatant is assayed by LC-MS/MS for the amount of parent compound.
The half-life (t1/2 INVITRO) is determined by the slope of the semilogarithmic plot of the concentration-time profile. The intrinsic clearance (CL_INTRINSIC) is calculated by considering the amount of protein in the incubation: CL_INTRINSIC [μl/min/mg protein]=(ln 2/(half-life [min]*protein content [mg/ml]))*1′000.

Setting [4] is: recombinant human DPPI, substrate Gly-Arg-AMC, pH 6.0, read-out: Inhibition of DPPI IC50.
Setting [5] is: Table 14, compounds examined in X-ray crystallography, read-out: CatC IC50.

recombinant human DPPI (Cathepsin C), sequence (P53634 231-394): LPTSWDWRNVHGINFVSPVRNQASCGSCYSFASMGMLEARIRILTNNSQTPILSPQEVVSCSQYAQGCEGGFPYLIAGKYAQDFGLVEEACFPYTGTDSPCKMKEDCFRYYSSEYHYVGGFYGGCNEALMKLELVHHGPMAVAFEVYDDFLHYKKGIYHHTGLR
recombinant human DPPI (Cathepsin C), sequence (P53634 25-134): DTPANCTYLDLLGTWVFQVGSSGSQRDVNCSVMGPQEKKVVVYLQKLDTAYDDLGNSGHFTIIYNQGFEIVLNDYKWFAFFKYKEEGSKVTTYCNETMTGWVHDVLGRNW
recombinant human DPPI (Cathepsin C), sequence (P53634 395-463): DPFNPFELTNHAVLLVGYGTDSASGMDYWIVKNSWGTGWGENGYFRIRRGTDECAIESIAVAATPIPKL

Usually IC50 stands for the concentration at which inhibition is half-maximal. In the case of `CN1CCC2(CC1)OC(=O)c1ccc(-c3ccc(C[C@@H](C#N)NC(=O)[C@H]4N[C@@H]5CC[C@H]4C5)c(F)c3)cc12` [Example 8], the IC50 in data set [1] (setting [4]) stood at 0.7 nM; in data set [2] it was 0.8 nM. Also, the half-life at 1 μM in data set [3] was 1.23 h.
Taken in the same sequence, the figures for `CN1C(=O)C2(CCNCC2)c2cc(-c3ccc(C[C@@H](C#N)NC(=O)[C@H]4N[C@@H]5CC[C@H]4C5)c(F)c3)ccc21` [Example 4] were 0.4 nM, 91 nM and more than 2.17 h.
Taken in the same sequence, the figures for `N#C[C@H](Cc1ccc(-c2ccc3c(n2)C2(CCN(C4COC4)CC2)OC3=O)cc1F)NC(=O)[C@H]1N[C@@H]2CC[C@H]1C2` [Example 24] were 2.7 nM, 6 nM and more than 2.17 h.
For `CN1CCC2(CCc3ccc(-c4ccc(C[C@@H](C#N)NC(=O)[C@H]5N[C@@H]6CC[C@H]5C6)c(F)c4)cc32)CC1` [Example 15], the half-inhibitory concentration (IC50) in data set [1] (setting [4]) turned out to be 0.5 nM; in data set [2], 0.2 nM. The half-life at 1 μM in data set [3] is more than 2.17 h.
Taken in the same sequence, the figures for `CN1CCC2(C1)OC(=O)c1ccc(-c3ccc(C[C@@H](C#N)NC(=O)[C@H]4N[C@@H]5CC[C@H]4C5)c(F)c3)cc12` (some centres unmarked) [Example 10] were 0.6 nM, 1.4 nM and more than 2.17 h.
With `N#C[C@H](Cc1ccc(-c2ccc3c(c2)C2(CCNC2)OC3=O)cc1F)NC(=O)[C@H]1N[C@@H]2CC[C@H]1C2` (some centres unmarked) [Example 9], the IC50 in data set [1] (setting [4]) was 0.5 nM; in data set [2], 21.5 nM. Besides, the half-life at 1 μM in data set [3] is more than 2.17 h.
The like results for `N#C[C@H](Cc1ccc(-c2cc3c(cn2)C(=O)OC32CCNCC2)cc1F)NC(=O)[C@H]1N[C@@H]2CC[C@H]1C2` [Example 18] were, in that order, 1.6 nM, 220 nM and more than 2.17 h.
Taken in the same sequence, the figures for `CN1CCC2(C1)OC(=O)c1cnc(-c3ccc(C[C@@H](C#N)NC(=O)[C@H]4N[C@@H]5CC[C@H]4C5)c(F)c3)cc12` (some centres unmarked) [Example 20] were 1.6 nM, 23.2 nM and more than 2.17 h.
As for `N#C[C@H](Cc1ccc(-c2ccc3c(c2)C2(CNC2)OC3=O)cc1F)NC(=O)[C@H]1N[C@@H]2CC[C@H]1C2` [Example 11], the IC50 is 0.7 nM in data set [1] (setting [5]), 0.7 nM in data set [1] (setting [4]) and 10.7 nM in data set [2]. In addition, the half-life at 1 μM in data set [3] is more than 2.17 h.
Turning to `CN1CCC2(CC1)OCc1ccc(-c3ccc(C[C@@H](C#N)NC(=O)[C@H]4N[C@@H]5CC[C@H]4C5)c(F)c3)cc12` [Example 14], the values for the IC50 in data set [1] (setting [4]) and in data set [2] were 1 nM and 1.1 nM, respectively. Moreover, in data set [3], the half-life at 1 μM was more than 2.17 h.
For the molecule `N#C[C@H](Cc1ccc(-c2ccc3c(c2)C2(CCNCC2)OC3)cc1F)NC(=O)[C@H]1N[C@@H]2CC[C@H]1C2` [Example 13], the results for the IC50 in data set [1] (setting [4]) and in data set [2] were 0.6 nM and 16.7 nM, respectively. For the same molecule, in data set [3], the half-life at 1 μM is more than 2.17 h.
The like results for `CN1CC2(C1)OC(=O)c1ccc(-c3ccc(C[C@@H](C#N)NC(=O)[C@H]4N[C@@H]5CC[C@H]4C5)c(F)c3)cc12` [Example 12] were, in that order, 0.5 nM, 1.2 nM and 0.767 h.
As for `CN1CCC2(CC1)C(=O)Nc1ccc(-c3ccc(C[C@@H](C#N)NC(=O)[C@H]4N[C@@H]5CC[C@H]4C5)c(F)c3)cc12` [Example 6], the IC50 was 0.2 nM in data set [1] (setting [4]) and 22.2 nM in data set [2]. The half-life at 1 μM in data set [3] was determined as 1.83 h.
The like results for `CN1CCC2(CC1)OC(=O)c1ncc(-c3ccc(C[C@@H](C#N)NC(=O)[C@H]4N[C@@H]5CC[C@H]4C5)c(F)c3)cc12` [Example 21] were, in that order, 1.4 nM, 63.7 nM and more than 2.17 h.
Taken in the same sequence, the figures for `CN1CCC2(CC1)C(=O)N(C)c1ccc(-c3ccc(C[C@@H](C#N)NC(=O)[C@H]4N[C@@H]5CC[C@H]4C5)c(F)c3)cc12` [Example 5] were 0.6 nM, 2.3 nM and more than 2.17 h.
With `N#C[C@H](Cc1ccc(-c2ccc3c(c2)C2(CCNC2)C(=O)N3)cc1F)NC(=O)[C@H]1N[C@@H]2CC[C@H]1C2` (some centres unmarked) [Example 16], the results for the half-maximal inhibitory concentration (IC50) in data set [1] (setting [5]), in data set [1] (setting [4]) and in data set [2] were 0.5 nM, 0.5 nM and 73.8 nM, respectively. In addition, the half-life at 1 μM in data set [3] is more than 2.17 h.
On to `N#C[C@H](Cc1ccc(-c2cc3c(cn2)C(=O)OC32CCN(C3COC3)CC2)cc1F)NC(=O)[C@H]1N[C@@H]2CC[C@H]1C2` [Example 22], for which the IC50 in data set [1] (setting [4]) was found to be 4.8 nM; in data set [2], 15.7 nM. Further, the half-life at 1 μM in data set [3] is more than 2.17 h.
Taken in the same sequence, the figures for `N#C[C@H](Cc1ccc(-c2ccc3c(c2)C2(CCNCC2)OC3=O)cc1F)NC(=O)[C@H]1N[C@@H]2CC[C@H]1C2` [Example 7] were 0.5 nM, 34.9 nM and more than 2.17 h.
Taken in the same sequence, the figures for `N#C[C@H](Cc1ccc(-c2ccc3c(c2)C2(CCN(C4COC4)CC2)OC3)cc1F)NC(=O)C12CCC(CC1)CN2` [Example 27, N-[(1S)-1-cyano-2-[2-fluoro-4-[1′-(oxetan-3-yl)spiro[1H-isobenzofuran-3,4′-piperidine]-5-yl]phenyl]ethyl]-3-azabicyclo[2.2.2]octane-4-carboxamide] were 2.9 nM, 0.7 nM and 2 h.
With `N#C[C@H](Cc1ccc(-c2ccc3c(c2)C2(CCNCC2)CC3)cc1F)NC(=O)[C@H]1N[C@@H]2CC[C@H]1C2` [Example 2], the IC50 in data set [1] (setting [4]) was determined as 0.6 nM; in data set [2], 6.8 nM. Further, the half-life at 1 μM in data set [3] is more than 2.17 h.
Taken in the same sequence, the figures for `N#C[C@H](Cc1ccc(-c2cc3c(cn2)COC32CCN(C3COC3)CC2)cc1F)NC(=O)[C@H]1N[C@@H]2CC[C@H]1C2` [Example 23, (1S,2S,4R)—N-[(1S)-1-cyano-2-[2-fluoro-4-[1′-(oxetan-3-yl)spiro[3H-furo[3,4-c]pyridine-1,4′-piperidine]-6-yl]phenyl]ethyl]-3-azabicyclo[2.2.1]heptane-2-carboxamide] were 5 nM, 7.5 nM and more than 2.17 h.
